Experimental data as given in the NIST ThermoML archive (doi:10.1007/s10765-016-2061-1).

Conditions: Liquid, Vibrating tube method

CCF [fluoroethane]
Conditions | mass density [kg/m3]
283.5 K, 49990 kPa | 805.67
283.5 K, 60000 kPa | 816.48
283.5 K, 69990 kPa | 826.06
283.5 K, 79970 kPa | 834.87
283.5 K, 90040 kPa | 843.3
283.51 K, 10000 kPa | 747.35
283.51 K, 15000 kPa | 756.91
283.51 K, 20000 kPa | 765.51
283.51 K, 25000 kPa | 773.62
283.51 K, 30000 kPa | 780.86
283.51 K, 40000 kPa | 794.13
283.51 K, 100000 kPa | 851.08
283.52 K, 1000 kPa | 727.11
283.52 K, 3000 kPa | 731.96
283.52 K, 4990 kPa | 736.6
293.2 K, 1010 kPa | 706.97
293.2 K, 3010 kPa | 712.87
293.21 K, 5010 kPa | 718.27
293.21 K, 10010 kPa | 730.51
293.21 K, 15010 kPa | 741.15
293.21 K, 20000 kPa | 750.65
293.21 K, 25010 kPa | 759.29
293.21 K, 30010 kPa | 767.25
293.21 K, 70000 kPa | 815.59
293.21 K, 80000 kPa | 825
293.22 K, 40010 kPa | 781.39
293.22 K, 50000 kPa | 793.87
293.22 K, 60000 kPa | 805.15
293.22 K, 90000 kPa | 833.51
293.22 K, 99990 kPa | 841.66
303.23 K, 3010 kPa | 692.69
303.23 K, 5010 kPa | 699.12
303.23 K, 10000 kPa | 713.26
303.23 K, 15000 kPa | 725.31
303.23 K, 20010 kPa | 735.85
303.23 K, 30000 kPa | 753.95
303.24 K, 25010 kPa | 745.33
303.24 K, 40010 kPa | 769.21
303.24 K, 50000 kPa | 782.6
303.24 K, 60000 kPa | 794.39
303.24 K, 70000 kPa | 805.57
303.24 K, 80000 kPa | 815.36
303.25 K, 90000 kPa | 824.43
303.25 K, 100000 kPa | 832.9
313.14 K, 3000 kPa | 669.48
313.14 K, 5000 kPa | 677.22
313.14 K, 10000 kPa | 694
313.14 K, 15000 kPa | 707.5
313.15 K, 20000 kPa | 719.54
313.15 K, 25000 kPa | 729.96
313.15 K, 30010 kPa | 739.29
313.15 K, 40000 kPa | 755.43
313.15 K, 50000 kPa | 770.06
313.15 K, 60000 kPa | 782.28
313.15 K, 70000 kPa | 794.18
313.15 K, 80000 kPa | 804.63
313.16 K, 90000 kPa | 814.08
313.16 K, 100000 kPa | 822.46
323 K, 3000 kPa | 644.53
323 K, 5000 kPa | 654.18
323 K, 10000 kPa | 673.87
323 K, 15000 kPa | 689.57
323 K, 20000 kPa | 702.96
323 K, 25000 kPa | 714.54
323 K, 90000 kPa | 804.1
323.01 K, 30000 kPa | 724.71
323.01 K, 40000 kPa | 742.42
323.01 K, 50000 kPa | 757.67
323.01 K, 60000 kPa | 770.9
323.01 K, 69990 kPa | 783.33
323.01 K, 80000 kPa | 794.16
323.01 K, 100000 kPa | 813.21
332.98 K, 3000 kPa | 616.38
332.98 K, 5000 kPa | 628.96
332.98 K, 10010 kPa | 653.01
332.98 K, 50000 kPa | 745.52
332.98 K, 60000 kPa | 759.62
332.99 K, 15000 kPa | 671.15
332.99 K, 20010 kPa | 686.12
332.99 K, 25000 kPa | 698.88
332.99 K, 29990 kPa | 710.09
332.99 K, 39990 kPa | 729.27
332.99 K, 69990 kPa | 772.51
332.99 K, 80010 kPa | 783.85
332.99 K, 90000 kPa | 794.07
332.99 K, 100000 kPa | 803.45
342.85 K, 3000 kPa | 582.54
342.85 K, 5000 kPa | 600.31
342.85 K, 10000 kPa | 630.51
342.85 K, 15000 kPa | 651.87
342.85 K, 20000 kPa | 668.76
342.85 K, 25000 kPa | 682.96
342.85 K, 30000 kPa | 695.28
342.85 K, 40000 kPa | 716.03
342.85 K, 60000 kPa | 748.38
342.86 K, 50010 kPa | 733.53
342.86 K, 70000 kPa | 762.03
342.86 K, 79990 kPa | 773.74
342.86 K, 90010 kPa | 784.53
342.87 K, 100000 kPa | 794.42
352.86 K, 5000 kPa | 566.12
352.86 K, 10000 kPa | 606.19
352.86 K, 15000 kPa | 631.59
352.86 K, 19990 kPa | 650.88
352.86 K, 25000 kPa | 666.7
352.86 K, 29990 kPa | 680.18
352.86 K, 39990 kPa | 702.62
352.86 K, 50000 kPa | 721.07
352.86 K, 59990 kPa | 736.86
352.86 K, 70000 kPa | 751.19
352.86 K, 79990 kPa | 763.56
352.86 K, 90000 kPa | 774.75
352.87 K, 99990 kPa | 785.11
362.79 K, 4990 kPa | 521.7
362.79 K, 10000 kPa | 579.49
362.8 K, 15000 kPa | 610.29
362.8 K, 19990 kPa | 632.41
362.8 K, 24990 kPa | 650.04
362.8 K, 30000 kPa | 664.91
362.8 K, 40000 kPa | 689.17
362.8 K, 49990 kPa | 708.84
362.81 K, 59990 kPa | 725.55
362.81 K, 70000 kPa | 740.64
362.81 K, 80000 kPa | 753.56
362.81 K, 90000 kPa | 765.31
362.81 K, 99990 kPa | 775.91
